# Experiments:
# [1] = target: T1, TSC22D4 (Homo sapiens, UniProt Q9Y3Q8); test: microscale thermophoresis; format: binding; conditions: room temperature
# T1 sequence (Q9Y3Q8 1-395): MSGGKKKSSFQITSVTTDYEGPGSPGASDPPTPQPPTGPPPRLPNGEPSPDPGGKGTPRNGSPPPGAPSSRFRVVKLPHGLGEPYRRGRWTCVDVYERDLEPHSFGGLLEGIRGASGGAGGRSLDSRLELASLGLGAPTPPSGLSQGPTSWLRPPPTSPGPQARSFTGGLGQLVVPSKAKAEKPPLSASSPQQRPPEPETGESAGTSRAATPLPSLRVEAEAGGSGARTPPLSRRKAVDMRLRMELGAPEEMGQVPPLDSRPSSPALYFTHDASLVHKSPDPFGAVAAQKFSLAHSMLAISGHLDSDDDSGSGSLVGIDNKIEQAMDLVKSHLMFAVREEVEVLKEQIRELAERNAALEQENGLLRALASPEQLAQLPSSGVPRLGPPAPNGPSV
# [2] = target: IGF2BP2 (Homo sapiens, UniProt Q9Y6M1); test: microscale thermophoresis; format: binding; conditions: room temperature; legend of Figure 4A prints 12 μM
# Chain of IGF2BP2 (Q9Y6M1 whole entry): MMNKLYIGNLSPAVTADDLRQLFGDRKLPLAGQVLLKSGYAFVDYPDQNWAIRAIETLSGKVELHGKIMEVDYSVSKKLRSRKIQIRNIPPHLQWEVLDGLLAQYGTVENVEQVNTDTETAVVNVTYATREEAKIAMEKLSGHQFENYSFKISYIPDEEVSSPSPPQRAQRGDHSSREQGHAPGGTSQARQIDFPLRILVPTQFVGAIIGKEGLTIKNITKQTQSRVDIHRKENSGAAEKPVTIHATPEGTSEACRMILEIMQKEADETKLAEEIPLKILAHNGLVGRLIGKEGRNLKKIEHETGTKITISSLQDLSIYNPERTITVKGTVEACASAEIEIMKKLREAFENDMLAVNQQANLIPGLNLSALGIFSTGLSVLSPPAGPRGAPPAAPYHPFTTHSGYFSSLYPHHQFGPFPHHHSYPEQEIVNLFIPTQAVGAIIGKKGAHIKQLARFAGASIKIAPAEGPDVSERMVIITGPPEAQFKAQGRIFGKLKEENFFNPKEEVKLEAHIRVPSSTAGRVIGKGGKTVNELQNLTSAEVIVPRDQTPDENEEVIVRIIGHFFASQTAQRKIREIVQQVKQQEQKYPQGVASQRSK
structure (smiles),measurement,setting,value
OC[C@H]1OC(O)[C@H](O)[C@@H](O)[C@@H]1O (some centres unmarked) [glucose],Kd,[1],~464 µM
same,Kd,[2],8.2 µM

# Source: publication doi:10.1101/2025.05.06.651509v2 (biorxiv, 2026)
